From article PMC8704315, “Lichen-Derived Compounds and Extracts as Biologically Active Substances with Anticancer and Neuroprotective Properties” (Pharmaceuticals, 2021) come the findings set out here.

Usually IC50 stands for the concentration needed to halve the response being measured.

The test system of one data set is A-172 cell line. Briefly: MTT cell viability assay, 48 h, A-172. It is filed as cell-based, Human. The settings on record: for IC50: Homo sapiens, read-out: IC50 A-172.
The target of data set [1] is T1, indoleamine 2,3-dioxygenases 1 (IDO1) (Homo sapiens, UniProt P14902).
T1 construct: purchased BPS Bioscience, Inc. (San Diego, CA, USA)
Briefly: Universal IDO1/IDO2/TDO Inhibitor Screening Assay Kit, IDO1. The class given is biochemical. Particulars: ± SEM, three measurements.

Data set [2] concerns the target T2, indoleamine 2,3-dioxygenases 2 (IDO2) (Homo sapiens, UniProt Q6ZQW0).
T2 construct: purchased BPS Bioscience, Inc. (San Diego, CA, USA)
T2 sequence (Q6ZQW0 1-407): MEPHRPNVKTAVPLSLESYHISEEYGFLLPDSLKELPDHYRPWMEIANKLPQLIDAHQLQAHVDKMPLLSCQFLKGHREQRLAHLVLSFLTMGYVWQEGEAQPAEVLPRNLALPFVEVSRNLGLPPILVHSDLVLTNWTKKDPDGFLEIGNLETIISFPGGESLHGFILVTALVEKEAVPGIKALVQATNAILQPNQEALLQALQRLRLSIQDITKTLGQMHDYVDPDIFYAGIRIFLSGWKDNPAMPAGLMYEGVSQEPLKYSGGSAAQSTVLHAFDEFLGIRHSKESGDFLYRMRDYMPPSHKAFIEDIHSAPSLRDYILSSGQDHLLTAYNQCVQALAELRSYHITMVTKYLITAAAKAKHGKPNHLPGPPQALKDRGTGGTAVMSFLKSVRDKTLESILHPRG
Description: Universal IDO1/IDO2/TDO Inhibitor Screening Assay Kit, IDO2. The class given is biochemical. The settings on record: for inhibition at 100 µg/mL: read-out: Inhibition (%) IDO2. Here is the method: (§1) This colorimetric assay is based on the measurement of the ability of IDO1, IDO2 and TDO to convert L-tryptophan into N-formylkynurenine (NFK). The experiments were performed according to the manufacturer’s guidelines. The final concentration of the compounds and extracts in the reaction mixture was 100 µg/mL. The amount of NFK was measured spectrophotometrically at 320 nm using an Epoch BioTek microplate reader (BioTek Instruments, Inc., Winooski, VT, USA). The samples were run in triplicate and the results were expressed as mean ± SEM.

For data set [3], the target named is T3, tryptophan 2,3-dioxygenase (TDO) (Homo sapiens, UniProt P48775).
T3 construct: purchased BPS Bioscience, Inc. (San Diego, CA, USA)
Briefly: Universal IDO1/IDO2/TDO Inhibitor Screening Assay Kit, TDO. The class given is biochemical. The settings on record: for inhibition at 100 µg/mL: read-out: Inhibition (%) TDO. On the procedure: as §1

A short description of a further data set: CUPRAC assay. Particulars: concentration giving absorbance 0.5; highest 250.0 µg/mL for substances, 312.5 µg/mL for extracts; ± SEM, n = 3.
The subject of data set [4] is Superoxide dismutase (SOD). Briefly: Effect on superoxide dismutase activity. It is filed as biochemical. Particulars: 537.6 μg/mL reaction mixture, ± SEM, n = 3. Here is the method:
Sample (50 µL, 5 mg/mL of pure DMSO) was mixed with 10 μL SOD (0.24 U), 160 μL nitrobluetatrazolium solution (0.0025 M), 205 μLphosphate buffer (0.2 M, pH 7.5), 30 μL xanthine (150 mM in 1 M NaOH) and 0.01 mL xanthine oxidase (0.065 U, Sigma Aldrich X4875). The change in the absorbance at 550 nm was measured in tested samples vs. controls without the studied sample after […] of incubation and the effect on the enzyme was calculated using the equation [74]: (3) Inhibition [%]=100 – 100×(Abs. 30 min – Abs. 0 min)/(Abs. control. 30 min – Abs. control 0 min)

The target of the next data set is BChE (Homo sapiens, UniProt P06276). It is filed as biochemical. Particulars: sample 142.9 μg/mL in the reaction mixture. Here is the method: Ellman’s colorimetric method was used with modifications described previously. Tested sample (10 μL) at concentration 5 mg/mL was mixed with 20 μL of AChE (or BChE) solution (0.28 U/mL) and completed after 5 min with 35 μL of ATChI (or BTCh) (1.5 mmol/L), 175 μL of 0.3 mmol/L DTNB (containing 10 mmol/L NaCl and 2 mmol/L MgCl2) and 110 μL with Tris-HCl buffer (50 mmol/L, pH 8.0). Samples containing 10 μL of Tris-HCl buffer instead of the studied sample were run in the same way (“blank” samples). The increase in the absorbance due to the spontaneous hydrolysis of the substrate was monitored using “blank” samples containing ATCh (or BTCh) and DTNB completed to 350 μL with Tris-HCl buffer. All samples were incubated at 22 °C (30 min; incubation time was determined after optimization experiments, details not shown), and the absorbance was measured (405 nm, 96-well microplate reader, Tecan Sunrise, Grödig, Austria). The “false-positive” effect of studied compounds was measured according to Rhee et al. with minor modifications, as described previously: after mixing of the substrate with the enzyme and buffer, the “false-positive” sample was left for incubation. Then, a studied sample and DTNB were added, followed by an immediate measurement of the absorbance.
Reference cholinesterase inhibitors were used for the calculations of results (eserine, neostigmine, magniflorine, rivastigmine and donepezil). For this purpose, for each compound, 16 dilutions in pure DMSO were prepared (2.57–41.14 μg/mL). These solutions (10 μL) were tested as described above and calibration curves were produced.
Each sample was analyzed in at least eight repeats, and all solutions used in a set of analyses were prepared in the same buffer. For calculations, the background of the sample (10 μL mixed with 340 μL of Tris buffer) was measured at 405 nm and subtracted during calculations. Then, the absorbance of the test sample was subtracted from the absorbance of the “blank” sample.

[5] abbreviates: A 172, 48 h treatment, MTT, ± SEM.
The mark [6] stands for this setting: 100 µg/mL, read-out: Inhibition (%) IDO1.

Molecules are shown by their SMILES. Several values for one entry are separate records, joined by “and”; a condition that tells them apart may be missing. Equal values may be shown once. Entries after “also recorded” stand apart in the source; their conditions may differ. Read-outs that look alike come from different tables or passages of the source.

T1 sequence (P14902 whole entry, species assumed): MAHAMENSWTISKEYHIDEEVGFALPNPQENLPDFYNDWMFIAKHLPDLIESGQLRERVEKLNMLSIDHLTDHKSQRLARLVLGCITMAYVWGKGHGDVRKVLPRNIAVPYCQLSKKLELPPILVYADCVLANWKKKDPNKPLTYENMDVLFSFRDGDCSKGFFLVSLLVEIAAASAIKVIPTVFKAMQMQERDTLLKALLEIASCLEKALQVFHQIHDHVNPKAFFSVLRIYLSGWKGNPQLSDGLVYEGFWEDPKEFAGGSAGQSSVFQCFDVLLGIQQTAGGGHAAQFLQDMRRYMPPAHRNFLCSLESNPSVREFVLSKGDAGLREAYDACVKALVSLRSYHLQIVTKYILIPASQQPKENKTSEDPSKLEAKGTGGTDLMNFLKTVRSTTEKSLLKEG
Sequence of BChE (P06276 29-602, species assumed): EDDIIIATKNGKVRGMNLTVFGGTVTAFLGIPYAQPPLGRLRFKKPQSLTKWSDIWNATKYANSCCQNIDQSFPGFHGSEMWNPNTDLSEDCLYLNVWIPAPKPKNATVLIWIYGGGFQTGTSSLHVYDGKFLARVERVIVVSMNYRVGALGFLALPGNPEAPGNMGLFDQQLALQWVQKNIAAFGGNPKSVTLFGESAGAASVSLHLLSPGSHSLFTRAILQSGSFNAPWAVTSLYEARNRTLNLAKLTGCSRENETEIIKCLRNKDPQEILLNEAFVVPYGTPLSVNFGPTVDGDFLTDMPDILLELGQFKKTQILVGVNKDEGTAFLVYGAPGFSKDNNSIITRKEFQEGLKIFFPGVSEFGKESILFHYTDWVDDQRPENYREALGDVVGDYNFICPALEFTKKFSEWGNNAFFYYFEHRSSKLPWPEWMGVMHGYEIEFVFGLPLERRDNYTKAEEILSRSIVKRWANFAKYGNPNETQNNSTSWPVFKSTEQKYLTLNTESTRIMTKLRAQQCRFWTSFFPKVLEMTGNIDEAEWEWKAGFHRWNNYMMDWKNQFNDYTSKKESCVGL
T3 sequence (P48775 whole entry, species assumed): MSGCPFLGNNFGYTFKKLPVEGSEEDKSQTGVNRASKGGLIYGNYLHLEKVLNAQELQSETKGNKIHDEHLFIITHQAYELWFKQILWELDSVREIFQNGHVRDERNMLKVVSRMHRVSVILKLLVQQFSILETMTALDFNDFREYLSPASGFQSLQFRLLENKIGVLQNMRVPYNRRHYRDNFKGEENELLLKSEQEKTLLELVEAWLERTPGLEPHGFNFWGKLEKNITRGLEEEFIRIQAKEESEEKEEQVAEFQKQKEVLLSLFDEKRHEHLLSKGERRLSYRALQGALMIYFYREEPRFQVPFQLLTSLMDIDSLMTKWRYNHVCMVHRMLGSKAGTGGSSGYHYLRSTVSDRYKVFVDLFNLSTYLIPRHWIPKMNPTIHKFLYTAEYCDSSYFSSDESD

With `CC(=O)C1=C(O)C=C2Oc3c(C(C)=O)c(O)c(C)c(O)c3C2(C)C1=O` (single isomer, unassigned; (-)) [(−)-Usnic acid, (−)-usnic acid], the IC50 in the data set on A-172 cell line (A 172, 48 h) was 31.5 µg/mL and 91.4 µM. For the same molecule, in data set [1] (100 µg/mL), the “Inhibition (%) IDO1” value is listed as 21.6 ± 0.9%. In addition, the inhibition at 100 µg/mL was 21.6 ± 0.85% in data set [1] (read-out: Inhibition (%) IDO1, 100 µg/mL); less than 10% in data set [2]; less than 10% in data set [3]. Moreover, in the data set “CUPRAC assay”, the “CUPRAC IC0.5” value is more than 250.0 µg/mL. Also, the results for the “SOD Inhibition (%)” value in data set [4] and in data set [4] (listed as (−)-usnic acid) were 19.6 ± 0.6% and ~ 20%, respectively.

For `COc1cc(C)c(C(=O)Oc2cc(C)c(C(=O)O)c(O)c2)c(O)c1` [Evernic acid, evernic acid], the “cell viability A-172” value in the data set with A-172 cell line (10–100 µM, compared to vehicle-treated control) is recorded as ~ 80%. The half-maximal inhibitory concentration (IC50) with A-172 cell line (setting [5]) was > 33.2 µg/mL and > 100 µM. In addition, the “Inhibition (%) IDO1” value in data set [1] (100 µg/mL) is listed as 32.8 ± 1.9%. Also, the inhibition at 100 µg/mL in data set [1] (setting [6]) came out at 32.8 ± 1.93%. The inhibition at 100 µg/mL in data set [2] (100 µg/mL) is less than 10%. Moreover, in data set [3] (100 µg/mL), the inhibition at 100 µg/mL was less than 10%. Besides, the “CUPRAC IC0.5” value in “CUPRAC assay” is more than 250.0 µg/mL. The “SOD Inhibition (%)” value in data set [4] is recorded as 21.2 ± 0.0%. Further, in data set [4] (listed as evernic acid), the “SOD Inhibition (%)” value is ~ 20%. On BChE, the “Equivalent Reference Concentration, Donepezil, BChE” value was determined as 9.5 ± 0.0 µg/mL; the “Equivalent Reference Concentration, Eserine, BChE” value stood at 10.9 ± 0.1 µg/mL; the “Equivalent Reference Concentration, Magniflorine, BChE” value stood at 52.3 ± 0.1 µg/mL; the “Equivalent Reference Concentration, Neostygmine, BChE” value was 16.5 ± 0.2 µg/mL. Further, the “Equivalent Reference Concentration, Rivastigmine, BChE” value on BChE is 85.9 ± 0.1 µg/mL.

With `Cc1cc(O)c(C=O)c2c1C(=O)Oc1c(CO)c(O)c3c(c1O2)C(O)OC3=O` (stereo not shown) [Salazinic acid, salazinic acid], the IC50 in the data set with A-172 cell line (setting [5]) was > 38.8 µg/mL and > 100 µM. In data set [1] (100 µg/mL), the “Inhibition (%) IDO1” value is “did not exhibit any inhibition effect; also recorded: not active”. Besides, the inhibition at 100 µg/mL in data set [1] (setting [6]) is less than 10%. Moreover, in data set [2] (100 µg/mL), the “Inhibition (%) IDO2” value is recorded as “did not exhibit any inhibition effect” and the inhibition at 100 µg/mL was less than 10%. Further, in data set [3] (100 µg/mL), the “Inhibition (%) TDO” value is recorded as “did not exhibit any inhibition effect” and the inhibition at 100 µg/mL was less than 10%. Also, the “CUPRAC IC0.5” value in “CUPRAC assay” is recorded as more than 250.0 µg/mL. Also, the “SOD Inhibition (%)” value in data set [4] was found to be 19.4 ± 0.3%. In addition, the “SOD Inhibition (%)” value in data set [4] (listed as salazinic acid) is on record as ~ 20%. Also, on BChE, the “Equivalent Reference Concentration, Donepezil, BChE” value was determined as 7.9 ± 0.3 µg/mL; the “Equivalent Reference Concentration, Eserine, BChE” value is 9.0 ± 0.1 µg/mL; the “Equivalent Reference Concentration, Magniflorine, BChE” value came out at 43.2 ± 0.2 µg/mL; the “Equivalent Reference Concentration, Neostygmine, BChE” value was determined as 13.6 ± 0.1 µg/mL. The “Equivalent Reference Concentration, Rivastigmine, BChE” value on BChE stood at 70.9 ± 0.3 µg/mL.
